Laboratory results: patent publication US8410113B2, “(2R)-1-(3-chloro-2-pyrazinyl)-2-methylpiperazine and salts thereof” (Biovitrum AB (publ), priority 2002, dated 2013)
“Also recorded” adds a separate entry of the source.

Legend:
[1] = salts of Example 2A; assessment, no test described; cited from earlier work
[2] = Crystallinity (X-rays / powder X-ray diffraction); assay type: physicochemical; conditions: salts of Example 2A, L-malate salt
From the text: (§1) Crystallinity (Powder X-Ray Diffraction)
as §1

[3] = Polymorphism screen (RT evaporation, cooling crystallization at −20° C.); assay type: physicochemical; conditions: salts of Example 2A, cooling crystallization at −20° C. in different solvent or mixtures
[4] = Hygroscopicity (DVS, storage at RT/different RHs and at 40° C./75% RH); assay type: physicochemical; conditions: salts of Example 2A; for Hygroscopicity: DVS, storage at RT/different RHs, L-malate salt
Method: Hygroscopicity (DVS, Storage at RT/Different RHs and at 40° C./75% RH)

[5] = Chemical stability (2 weeks at 65° C.); assay type: physicochemical; conditions: salts of Example 2A, also RT/90% RH, L-malate salt
Method: Chemical Stability (2 Weeks at 65° C.)

[6] = Chemical stability during storage; conditions: long term storage; free base vs hydrochloride
[7] = obese subjects, after 2 weeks of treatment; cited from earlier work
[8] = molecular target: T1, 5-HT2c receptor (Mus musculus, UniProt P34968); conditions: mice that express the normal 5-HT2c receptor; cited from earlier work
T1 construct: mice that express the normal 5-HT2c receptor; host or cells: mice (whole animal)
T1 sequence (P34968 33-459): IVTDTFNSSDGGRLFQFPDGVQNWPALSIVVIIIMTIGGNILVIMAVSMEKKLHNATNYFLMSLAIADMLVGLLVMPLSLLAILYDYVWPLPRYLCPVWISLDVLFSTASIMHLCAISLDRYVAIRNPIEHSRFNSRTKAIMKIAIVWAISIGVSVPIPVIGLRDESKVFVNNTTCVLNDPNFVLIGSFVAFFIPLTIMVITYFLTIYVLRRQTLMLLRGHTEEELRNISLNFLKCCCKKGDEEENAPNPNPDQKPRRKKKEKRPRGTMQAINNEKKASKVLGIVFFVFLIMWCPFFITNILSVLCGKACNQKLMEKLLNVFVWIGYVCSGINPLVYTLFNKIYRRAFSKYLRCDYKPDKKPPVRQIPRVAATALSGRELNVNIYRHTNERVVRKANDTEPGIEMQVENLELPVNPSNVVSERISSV

[9] = system: 5-HT2c receptor; conditions: mice expressing the mutated inactive form of the 5-HT2c receptor; cited from earlier work

C[C@@H]1CNCCN1c1nccnc1OCCOc1cccnc1.O=C(O)C[C@H](O)C(=O)O [Example 3A, (2R)-methyl-1-{3-[2-(3-pyridinyloxy)ethoxy]-2-pyrazinyl}piperazine, L-malate salt]
Toxicological acceptability [1]: low toxicity | Crystallinity (X-Rays) [2]: higher crystallinity | Crystallinity (X-Rays) ([2]; listed as L-malate): Positive results; also recorded: high crystallinity | Polymorphism [3]: did not show other polymorphs | behavior upon exposition to 40° C./75% RH ([4]; 40° C./75% RH): good behavior | Hygroscopicity [4]: less hygroscopic | Hygroscopicity ([4]; listed as L-malate): low hygroscopicity | Chemical stability [5]: higher chemical stability | Chemical stability ([5]; listed as L-malate): Positive data; also recorded: high chemical stability

C[C@@H]1CNCCN1c1nccnc1Cl.Cl [Example 9, (2R)-1-(3-chloro-2-pyrazinyl)-2-methylpiperazine, hydrochloride]
stability for storage [6]: considerably more stable | melting point: 209 to 210.5 °C

Clc1cccc(N2CCNCC2)c1 [mCPP, m-chlorophenylpiperazine]
body weight [7]: slight but sustained reduction in body weight | weight loss [8]: causes weight loss | weight loss [9]: lacks activity
